Test results: US10202404B2, “Polycyclic pyridone derivative having integrase inhibitory activity” (Shionogi & Co., Ltd., priority 2014, dated 2019)

What follows are molecules tested on HIV (assay: Anti-HIV activity (MT-4 cells, MTT)). Conditions: 50% HIV inhibition concentration; MT-4 cells infected with HIV, incubated 4 days, MTT readout.
Format: cell-based
Procedure: Previously, a series of two-fold dilution on test samples were carried out in a 96-well plate (50 μL/well). Two plates were made for measuring anti-HIV activity and measuring cytotoxicity. For each agent, measurement in duplicate was carried out. An MT-4 cell suspension of 2.5×10^5/mL was dispensed at 100 μL/well onto the 96-well plate containing the test samples. An HIV virus solution was dispensed at 50 μL/well onto the 96-well plate containing the test samples and the cell. To the plate for measuring cytotoxicity, a culture solution was dispensed at 50 μL/well. It was mixed by a plate mixer, and then incubated in a CO2 incubator for 4 days. […] Thirty microliters of a MTT (3-(4,5-dimethylthiazol-2-yl)-2,5-diphenyltetrazolium bromide) solution was dispensed to each well.
A reaction was allowed to occur in a CO2 incubator for an hour. From each well, 150 μL of the supernatant was removed such that cells are not sucked. One-hundred and fifty microliters of a cell lysis solution was added thereto, and then it was mixed well by a plate mixer until the whole cells are lysed. The mixed 96-well plates were measured by a microplate reader at two wavelengths, 560 nm/690 nm. Based on the following calculation formula, 50% HIV inhibition concentration (EC50) was calculated. EC50=10Z Z=(50%−Low %)/(High %−Low %)×{log(High conc.)−log(Low conc.)}+log(Low conc.) Based on the following calculation formula, 50% cytotoxic concentration (CC50) was calculated. CC50=10Z Z=(50%−Low %)/(High %−Low %)×{log(High conc.)−log(Low conc.)}+log(Low conc.) Based on the following calculation formula, selectivity index (ST) was calculated. SI=CC50/EC50 (Result)
Molecule `O=C1c2c(O)c(=O)c(-c3nnc(Cc4ccc(F)cc4F)s3)cn2C[C@@H]2CCCCN12` [Compound B-1] has an EC50 of 2.9 nM. `CCN1CN(CCOC)C(=O)c2c(O)c(=O)c(-c3ncc(Cc4ccc(F)cc4F)s3)cn21` [Compound C-10] was tested, and the EC50 was 5.8 nM. `O=C1c2c(O)c(=O)c(-c3nnc(Cc4cccc(Cl)c4F)s3)cn2CN2CCCCN12` [Compound C-14] gave an EC50 of 2.2 nM.

Same assay, conditions: Human immunodeficiency virus 1, MT4, 96 h; 50% HIV inhibition concentration; MT-4 cells infected with HIV, incubated 4 days, MTT readout
`COC[C@@H]1CCN2C(=O)c3c(O)c(=O)c(-c4nnc(Cc5ccc(F)cc5F)s4)cn3C[C@@H]2O1` [Compound A-68] was tested, and the EC50 was 4.6 nM. In the case of `COC[C@H]1CCN2C(=O)c3c(O)c(=O)c(-c4nnc(Cc5ccc(F)cc5F)s4)cn3C[C@H]2O1` [Compound A-69], the EC50 is reported as 5.1 nM. `O=C1c2c(O)c(=O)c(-c3nnc(Cc4ccc(F)cc4F)s3)cn2C[C@H]2OCC[C@@H](C(F)(F)F)N12` [Compound A-70] gave an EC50 of 8 nM. Work on `C[C@@H]1CCO[C@H]2Cn3cc(-c4cc(Cc5ccc(F)cc5F)sn4)c(=O)c(O)c3C(=O)N12` [Compound A-71] yielded an EC50 of 9.3 nM. With `C[C@@H]1CCO[C@H]2Cn3cc(-c4cn(Cc5ccc(F)cc5F)nn4)c(=O)c(O)c3C(=O)N12` [Compound A-72] the EC50 was 8.5 nM. For `O=C1c2c(O)c(=O)c(-c3nnc(Cc4ccc(F)cc4F)s3)cn2C[C@H]2O[C@@H]3COC[C@@H]3N12` [Compound A-73], the EC50 was 5.7 nM. `O=C1c2c(O)c(=O)c(-c3nnc(Cc4ccc(F)cc4F)s3)cn2C[C@@H]2O[C@H]3COC[C@H]3N12` [Compound A-74] showed an EC50 of 12 nM. `COCc1cc(F)cc(F)c1Cc1nnc(-c2cn3c(c(O)c2=O)C(=O)N2[C@H](C)CCO[C@H]2C3)s1` [Compound A-75] showed an EC50 of 10 nM. `C[C@@H]1CCS[C@H]2Cn3cc(-c4nnc(Cc5ccc(F)cc5F)s4)c(=O)c(O)c3C(=O)N12` [Compound A-76] showed an EC50 of 4.7 nM. Molecule `C[C@@H]1N2C(=O)c3c(O)c(=O)c(-c4nnc(Cc5ccc(F)cc5F)s4)cn3C[C@H]2OCC1(F)F` [Compound A-77] has an EC50 of 7.2 nM. In the case of `C[C@H]1N2C(=O)c3c(O)c(=O)c(-c4nnc(Cc5ccc(F)cc5F)s4)cn3C[C@@H]2OCC1(F)F` [Compound A-78], the EC50 is reported as 4.6 nM. `C[C@@H]1CCO[C@H]2Cn3cc(-c4cc(Cc5ccc(F)cc5F)n(C)n4)c(=O)c(O)c3C(=O)N12` [Compound A-79] gave an EC50 of 15 nM. In the case of `Cc1nc(-c2cn3c(c(O)c2=O)C(=O)N2[C@H](C)CCO[C@H]2C3)sc1Cc1cccc(Cl)c1F` [Compound A-80], the EC50 is reported as 6.3 nM. Molecule `O=C1c2c(O)c(=O)c(-c3nnc(Cc4ccc(F)cc4F)s3)cn2C[C@H]2CCCCN12` [Compound B-2] has an EC50 of 3.9 nM. Molecule `O=C1c2c(O)c(=O)c(-c3nnc(Cc4ccc(F)cc4F)s3)cn2C[C@H]2CCCN12` [Compound B-3] has an EC50 of 3.7 nM. Work on `O=C1c2c(O)c(=O)c(-c3nnc(Cc4cccc(Cl)c4F)s3)cn2C[C@H]2CCCN12` [Compound B-4] yielded an EC50 of 5.5 nM. Molecule `O=C1c2c(O)c(=O)c(-c3nnc(Cc4cccc(Cl)c4F)s3)cn2C[C@H]2CCCCN12` [Compound B-5] has an EC50 of 6.7 nM. With `O=C1c2c(O)c(=O)c(-c3nnc(Cc4cccc(Cl)c4F)s3)cn2C[C@@H]2CCCCN12` [Compound B-6] the EC50 was 7.5 nM. `O=C1c2c(O)c(=O)c(-c3nnc(Cc4c(F)cc(F)cc4F)s3)cn2C[C@H]2CCCCN12` [Compound B-7] was tested, and the EC50 was 2.9 nM. `O=C1c2c(O)c(=O)c(-c3nnc(Cc4c(F)cc(F)cc4F)s3)cn2C[C@@H]2CCCCN12` [Compound B-8] gave an EC50 of 3.8 nM. For `O=C1c2c(O)c(=O)c(-c3nnc(Cc4ccc(F)cc4F)s3)cn2C[C@@H]2[C@@H]3C[C@@H]3CN12` [Compound B-9], the EC50 was 2 nM. `O=C1c2c(O)c(=O)c(-c3nnc(Cc4ccc(F)cc4F)s3)cn2C[C@@H]2COCCN12` [Compound B-10] showed an EC50 of 10 nM. Work on `O=C1c2c(O)c(=O)c(-c3nnc(Cc4ccc(F)cc4F)s3)cn2C[C@H]2COCCN12` [Compound B-11] yielded an EC50 of 5.9 nM. `O=C1c2c(O)c(=O)c(-c3ncc(Cc4ccc(F)cc4F)s3)cn2C[C@@H]2CCCN12` [Compound B-13] gave an EC50 of 7.7 nM. For `O=C1c2c(O)c(=O)c(-c3ncc(Cc4cccc(Cl)c4F)s3)cn2C[C@@H]2CCCN12` [Compound B-14], the EC50 was 10 nM. `O=C1c2c(O)c(=O)c(-c3ncc(Cc4ccc(F)cc4F)s3)cn2C[C@H]2CCCN12` [Compound B-15] was tested, and the EC50 was 4 nM. `O=C1c2c(O)c(=O)c(-c3ncc(Cc4ccc(F)cc4F)s3)cn2C[C@H]2CCCCN12` [Compound B-16] showed an EC50 of 7.7 nM. `O=C1c2c(O)c(=O)c(-c3ncc(Cc4cccc(Cl)c4F)s3)cn2C[C@H]2CCCN12` [Compound B-17] was tested, and the EC50 was 5.3 nM. Molecule `O=C1c2c(O)c(=O)c(-c3ncc(Cc4cccc(Cl)c4F)s3)cn2C[C@H]2CCCCN12` [Compound B-18] has an EC50 of 14 nM. `O=C1c2c(O)c(=O)c(-c3ncc(Cc4cccc(Cl)c4F)s3)cn2C[C@@H]2CCCCN12` [Compound B-19] showed an EC50 of 18 nM. With `O=C1c2c(O)c(=O)c(-c3nnc(Cc4ccc(F)cc4F)s3)cn2C[C@@H]2C[C@@H](F)CCN12` [Compound B-21] the EC50 was 4 nM. With `O=C1c2c(O)c(=O)c(-c3nnc(Cc4ccc(F)cc4F)s3)cn2C[C@@H]2[C@H]3CC[C@H](C3)N12` [Compound B-22] the EC50 was 3.5 nM. In the case of `CCN1CN(CCOC)C(=O)c2c(O)c(=O)c(-c3nnc(Cc4ccc(F)cc4F)s3)cn21` [Compound C-2], the EC50 is reported as 1.4 nM. Work on `COCCN1CN(C)n2cc(-c3nnc(Cc4ccc(F)cc4F)s3)c(=O)c(O)c2C1=O` [Compound C-3] yielded an EC50 of 1.1 nM. `CCN1CN(CCOC)C(=O)c2c(O)c(=O)c(-c3nnc(Cc4cccc(Cl)c4F)s3)cn21` [Compound C-4] showed an EC50 of 2.1 nM. `CCN1CN([C@H](C)C(F)(F)F)C(=O)c2c(O)c(=O)c(-c3nnc(Cc4ccc(F)cc4F)s3)cn21` [Compound C-5] gave an EC50 of 3.4 nM. `CCN1CN([C@H](C)C(F)(F)F)C(=O)c2c(O)c(=O)c(-c3nnc(Cc4cccc(Cl)c4F)s3)cn21` [Compound C-6] was tested, and the EC50 was 5.7 nM. For `CCN1CN(CCCOC)C(=O)c2c(O)c(=O)c(-c3nnc(Cc4ccc(F)cc4F)s3)cn21` [Compound C-7], the EC50 was 2 nM. Molecule `CCN1CN(CCCOC)C(=O)c2c(O)c(=O)c(-c3nnc(Cc4cccc(Cl)c4F)s3)cn21` [Compound C-8] has an EC50 of 2.4 nM. In the case of `COCCN1CN(C)n2cc(-c3ncc(Cc4ccc(F)cc4F)s3)c(=O)c(O)c2C1=O` [Compound C-13], the EC50 is reported as 2.7 nM. In the case of `O=C1c2c(O)c(=O)c(-c3nnc(Cc4ccc(F)cc4F)s3)cn2CN2CCCCN12` [Compound C-15], the EC50 is reported as 1.7 nM. For `O=C1c2c(O)c(=O)c(-c3nnc(Cc4ccc(F)cc4F)s3)cn2CN2CCOCCN12` [Compound C-16], the EC50 was 8.5 nM. For `CN1Cn2cc(-c3nnc(Cc4ccc(F)cc4F)s3)c(=O)c(O)c2C(=O)N1C` [Compound C-18], the EC50 was 2.3 nM. `O=C1c2c(O)c(=O)c(-c3nnc(Cc4ccc(F)cc4F)s3)cn2CN2CCCN12` [Compound C-19] gave an EC50 of 4.2 nM. In the case of `COCCN1C(=O)c2c(O)c(=O)c(-c3nnc(Cc4ccc(F)cc4F)s3)cn2CN1C` [Compound C-20], the EC50 is reported as 1.7 nM. In the case of `CCN1Cn2cc(-c3nnc(Cc4ccc(F)cc4F)s3)c(=O)c(O)c2C(=O)N1CC` [Compound C-21], the EC50 is reported as 1.5 nM. `COCCN1Cn2cc(-c3nnc(Cc4ccc(F)cc4F)s3)c(=O)c(O)c2C(=O)N1C(C)C` [Compound C-22] showed an EC50 of 1.3 nM. `CCN1C(=O)c2c(O)c(=O)c(-c3nnc(Cc4ccc(F)cc4F)s3)cn2CN1C` [Compound C-23] showed an EC50 of 1.2 nM. With `O=C1c2c(O)c(=O)c(-c3nnc(Cc4ccc(F)cc4F)s3)cn2CN2CC3(CC3)CN12` [Compound C-24] the EC50 was 2.4 nM. Work on `CCN1NCn2cc(-c3nnc(Cc4ccc(F)cc4F)s3)c(=O)c(O)c2C1=O` [Compound C-25] yielded an EC50 of 2.2 nM. For `COCCN1Cn2cc(-c3nnc(Cc4ccc(F)cc4F)s3)c(=O)c(O)c2C(=O)N1C` [Compound C-26], the EC50 was 1.5 nM. Work on `COCCN1Cn2cc(-c3nnc(Cc4ccc(F)cc4F)s3)c(=O)c(O)c2C(=O)N1CCOC` [Compound C-27] yielded an EC50 of 2 nM. `CC1CCN2Cn3cc(-c4nnc(Cc5ccc(F)cc5F)s4)c(=O)c(O)c3C(=O)N12` (stereo not drawn) [Compound C-28] gave an EC50 of 4.8 nM. With `CC(=O)Oc1c2n(cc(-c3nnc(Cc4ccc(F)cc4F)s3)c1=O)C[C@@H]1OCC[C@@H](C)N1C2=O` [Compound D-1] the EC50 was 3.8 nM. Molecule `COC(=O)OCOc1c2n(cc(-c3nnc(Cc4ccc(F)cc4F)s3)c1=O)C[C@@H]1OCC[C@@H](C)N1C2=O` [Compound D-2] has an EC50 of 8 nM. Work on `C[C@@H]1CCO[C@H]2Cn3cc(-c4nnc(Cc5ccc(F)cc5F)s4)c(=O)c(OCOC(=O)C(C)(C)C)c3C(=O)N12` [Compound D-3] yielded an EC50 of 4.8 nM. With `COCCOC(=O)Oc1c2n(cc(-c3nnc(Cc4ccc(F)cc4F)s3)c1=O)C[C@@H]1OCC[C@@H](C)N1C2=O` [Compound D-4] the EC50 was 4.1 nM.
